Assay results from paper PMC10817170, “Effect of an NHE3 inhibitor in combination with an NPT2b inhibitor on gastrointestinal phosphate absorption in Rodent models” (PLOS ONE, 2024).
Several values for one entry are separate records, joined by “and”; a condition that tells them apart may be missing. Identical values can stand only once.

How the values were obtained:
[1] = system: T1, NHE3; assay: Sodium and phosphate excretion in urine after oral NaH2PO4 bolus in rats; type: in vivo; conditions: 4 h urine; for Phosphorus-to-Creatinine / Sodium-to-Creatinine / Total Urinary Phosphorus / Total Urinary Sodium / Urinary-to-Dietary Phosphate / Urinary-to-Dietary Sodium / Urine Volume: NaH2PO4 bolus
T1 construct: from tissue; host or cells: intestine of living SD rats
Experimental: To assess sodium and phosphate absorption in rats, we took advantage of the increase in urinary sodium and phosphate excretion following an oral bolus of sodium phosphate. Thus, an LY3304000 dependent decrease in urinary sodium and phosphate excretion following an oral bolus dose of sodium phosphate is an indirect measurement of the ability of LY3304000 to inhibit sodium and phosphate absorption in intestine. A dosing solution of 3 mg/kg LY3304000 for a 10 mL/kg dose volume was formulated in 1% HEC. The subsequent dosing solutions of 1, 0.3, 0.1, 0.03, 0.01, 0.003, and 0.001 mg/kg LY3304000 were prepared by serial dilutions with 1% HEC. An NaH2PO4 dosing solution at 690 mg/kg with a 20 mL/kg dosing volume was made in sterile water. Male SD rats were fasted for 4 hours with access to water and then orally dosed at 10 mL/kg with 1% HEC vehicle or varying dose of LY3304000 at 0.001, 0.003, 0.01, 0.03, 0.1, 0.3, 1, and 3 mg/kg. In this and subsequent studies where phosphate absorption is measured, a 4 hour fast was used which is less disruptive to the animal’s normal physiology than the 12 hours fast used to measure acute phosphate uptake into plasma. Fifteen minutes later, rats were dosed with either sterile water or NaH2PO4 solution, and then immediately transferred to metabolic cages. Urine samples were collected from the metabolic cages at 4 hours post sterile water or NaH2PO4 dose. The net urine volume was recorded. Urinary sodium, creatinine, and phosphorus (as a measure of phosphate) were determined using a clinical biochemistry analyzer. The urinary sodium-to-creatinine and phosphorus-to-creatinine ratios were calculated and compared between vehicle and LY3304000 treated groups. The ratios of urinary-to-dietary phosphate (measured as phosphorus) and urinary-to-dietary sodium in urine were compared between vehicle and LY3304000 treated groups.

[2] = target: T2, Human NPT2b (Homo sapiens, UniProt O95436); assay: NPT2b activity assay (33P-phosphate uptake in T-Rex CHO cells); type: cell-based; conditions: geometric mean, n=3
T2 construct: expressed in transfected cells; host or cells: T-Rex CHO (Thermo Fisher Scientific), tetracycline-inducible
T2 sequence (O95436 1-690): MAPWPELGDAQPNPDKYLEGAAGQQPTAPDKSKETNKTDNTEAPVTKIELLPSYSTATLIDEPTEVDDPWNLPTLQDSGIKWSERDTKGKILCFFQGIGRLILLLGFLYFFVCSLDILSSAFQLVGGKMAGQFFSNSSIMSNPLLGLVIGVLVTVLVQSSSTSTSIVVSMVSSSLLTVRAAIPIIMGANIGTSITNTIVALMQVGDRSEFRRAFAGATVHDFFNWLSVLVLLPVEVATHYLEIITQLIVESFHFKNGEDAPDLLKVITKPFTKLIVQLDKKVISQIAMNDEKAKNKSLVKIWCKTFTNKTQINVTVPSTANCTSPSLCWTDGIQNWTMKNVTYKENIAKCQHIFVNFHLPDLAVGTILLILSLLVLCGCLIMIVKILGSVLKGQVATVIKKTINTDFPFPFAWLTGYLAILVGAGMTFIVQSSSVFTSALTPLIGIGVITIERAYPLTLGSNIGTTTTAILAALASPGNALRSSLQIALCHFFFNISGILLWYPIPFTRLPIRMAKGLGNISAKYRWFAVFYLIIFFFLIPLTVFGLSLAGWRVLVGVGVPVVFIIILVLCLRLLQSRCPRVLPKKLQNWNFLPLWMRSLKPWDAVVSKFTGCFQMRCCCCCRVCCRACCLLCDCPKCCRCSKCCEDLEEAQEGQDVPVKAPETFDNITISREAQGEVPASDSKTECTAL
Experimental: Generation of inducible human, mouse, and rat NPT2b overexpressing T-Rex™ Chinese Hamster Ovary (CHO, Thermo Fisher Scientific) cells and the NPT2b activity assay were described previously. Briefly, cells were plated in 96-well CytoStar-T® scintillating microplates and were incubated overnight in medium plus 100 ng/mL of tetracycline to induce the expression of human NPT2b. The cells were then washed 3 times with 200 μL Assay Buffer (137 mM NaCl, 5.4 mM KCl, 2.8 mM CaCl2, 1.2 mM MgSO4, and 14 mM Tris-HCl buffer, pH 7.5). LY3304000 serially diluted 1-to-3 in DMSO was added to cells with Assay Buffer. An equal volume of H3^33PO4 (PerkinElmer) in Assay Buffer supplemented with 5 μM potassium phosphate was then added to initiate radiolabeled phosphate (^33P-phosphate) uptake. The final phosphate concentration was 2.5 μM. Following a 60-minute incubation at room temperature, an equal volume of Assay Buffer containing 400 μM phloretin was added to stop ^33P-phosphate uptake. The plate was immediately read on a Wallac MicroBeta Trilux liquid scintillation counter. Percent inhibition at all concentrations tested was calculated, and IC50 values were then determined using a 4-parameter logistic curve fitting equation.

SMILES: CN1Cc2c(Cl)cc(Cl)cc2[C@H](c2cccc(S(=O)(=O)NCCOCCOCCN/C(=N\C(N)=O)NCCCCN/C(=N/C(N)=O)NCCOCCOCCNS(=O)(=O)c3cccc([C@@H]4CN(C)Cc5c(Cl)cc(Cl)cc54)c3)c2)C1.Cl.Cl [LY3304000, (Z)-[[4-[[(Z)-N’-carbamoyl-N-[2-[2-[2-[[3-[(4S)-6,8-dichloro-2-methyl-3,4-dihydro-1H-isoquinolin-4-yl]phenyl]sulfonylamino]ethoxy]ethoxy]ethyl]carbamimidoyl]amino]butylamino]-[2-[2-[2-[[3-[(4S)-6,8-dichloro-2-methyl-3,4-dihydro-1H-isoquinolin-4-yl]phenyl]sulfonylamino]ethoxy]ethoxy]ethylamino]methylene]urea dihydrochloride]
- Phosphorus-to-Creatinine ([1]; 0.001 mg/kg po): 14 mg/mg
- Sodium-to-Creatinine ([1]; 0.001 mg/kg po): 10 mg/mg
- Total Urinary Phosphorus ([1]; 0.001 mg/kg po): 12501 µg
- Total Urinary Sodium ([1]; 0.001 mg/kg po): 9084 µg
- Urinary-to-Dietary Phosphate ([1]; 0.001 mg/kg po): 0.337
- Urinary-to-Dietary Sodium ([1]; 0.001 mg/kg po): 0.326
- Urine Volume ([1]; 0.001 mg/kg po): 4 mL
- Phosphorus-to-Creatinine ([1]; 0.003 mg/kg po): 14.1 mg/mg
- Sodium-to-Creatinine ([1]; 0.003 mg/kg po): 12.2 mg/mg
- Total Urinary Phosphorus ([1]; 0.003 mg/kg po): 12997 µg
- Total Urinary Sodium ([1]; 0.003 mg/kg po): 11429 µg
- Urinary-to-Dietary Phosphate ([1]; 0.003 mg/kg po): 0.350
- Urinary-to-Dietary Sodium ([1]; 0.003 mg/kg po): 0.413
- Urine Volume ([1]; 0.003 mg/kg po): 4.6 mL
- Phosphorus-to-Creatinine ([1]; 0.01 mg/kg po): 15 mg/mg
- Sodium-to-Creatinine ([1]; 0.01 mg/kg po): 9.8 mg/mg
- Total Urinary Phosphorus ([1]; 0.01 mg/kg po): 12066 µg
- Total Urinary Sodium ([1]; 0.01 mg/kg po): 8104 µg
- Urinary-to-Dietary Phosphate ([1]; 0.01 mg/kg po): 0.320
- Urinary-to-Dietary Sodium ([1]; 0.01 mg/kg po): 0.290
- Urine Volume ([1]; 0.01 mg/kg po): 3.8 mL
- Phosphorus-to-Creatinine ([1]; 0.03 mg/kg po): 13 mg/mg
- Sodium-to-Creatinine ([1]; 0.03 mg/kg po): 9.8 mg/mg
- Total Urinary Phosphorus ([1]; 0.03 mg/kg po): 9961 µg
- Total Urinary Sodium ([1]; 0.03 mg/kg po): 7637 µg
- Urinary-to-Dietary Phosphate ([1]; 0.03 mg/kg po): 0.268
- Urinary-to-Dietary Sodium ([1]; 0.03 mg/kg po): 0.276
- Urine Volume ([1]; 0.03 mg/kg po): 2.7 mL
- Phosphorus-to-Creatinine ([1]; 0.1 mg/kg po): 12.3 mg/mg
- Sodium-to-Creatinine ([1]; 0.1 mg/kg po): 5.3 mg/mg
- Total Urinary Phosphorus ([1]; 0.1 mg/kg po): 7247 µg
- Total Urinary Sodium ([1]; 0.1 mg/kg po): 2850 µg
- Urinary-to-Dietary Phosphate ([1]; 0.1 mg/kg po): 0.197
- Urinary-to-Dietary Sodium ([1]; 0.1 mg/kg po): 0.105
- Urine Volume ([1]; 0.1 mg/kg po): 1.7 mL
- Phosphorus-to-Creatinine ([1]; 0.3 mg/kg po): 12 mg/mg
- Sodium-to-Creatinine ([1]; 0.3 mg/kg po): 2.4 mg/mg
- Total Urinary Phosphorus ([1]; 0.3 mg/kg po): 6250 µg
- Total Urinary Sodium ([1]; 0.3 mg/kg po): 1095 µg
- Urinary-to-Dietary Phosphate ([1]; 0.3 mg/kg po): 0.168
- Urinary-to-Dietary Sodium ([1]; 0.3 mg/kg po): 0.039
- Urine Volume ([1]; 0.3 mg/kg po): 1 mL
- Phosphorus-to-Creatinine ([1]; 1 mg/kg po): 11.3 mg/mg
- Sodium-to-Creatinine ([1]; 1 mg/kg po): 2.4 mg/mg
- Total Urinary Phosphorus ([1]; 1 mg/kg po): 7081 µg
- Total Urinary Sodium ([1]; 1 mg/kg po): 1400 µg
- Urinary-to-Dietary Phosphate ([1]; 1 mg/kg po): 0.191
- Urinary-to-Dietary Sodium ([1]; 1 mg/kg po): 0.051
- Urine Volume ([1]; 1 mg/kg po): 1.4 mL
- Phosphorus-to-Creatinine ([1]; 3 mg/kg po): 9.5 mg/mg
- Total Urinary Phosphorus ([1]; 3 mg/kg po): 5346 µg
- Total Urinary Sodium ([1]; 3 mg/kg po): 612 µg
- Urinary-to-Dietary Phosphate ([1]; 3 mg/kg po): 0.144
- Urinary-to-Dietary Sodium ([1]; 3 mg/kg po): 0.022
- Urine Volume ([1]; 3 mg/kg po): 1 mL
- Sodium-to-Creatinine ([1]; 3 mg/kg po, 3 mg/kg): 1.0 ± 0.4 mg/mg and 1 mg/mg
- ED50, urinary phosphorus excretion ([1]; urinary-to-dietary phosphorus): 0.041 mg/kg
- ED50, urinary sodium excretion ([1]; urinary-to-dietary sodium): 0.058 mg/kg
- IC50 [2]: 58.4 µM
